Data on one compound can be found in patent publication US20030177531A1, “Regulating metabolism by modifying the level of trehalose-6-phosphate by inhibiting endogenous trehalase levels” (Mogen International N.V., priority 1997, published 2003).

The subject of one assay is trehalase activity. Nature of the assay: Trehalose accumulation in potato microtubers induced on medium with Validamycin A. The following applies: for Trehalose (% fresh weight), +Validamycin A: 10^−3M Validamycin A. The class given is cell-based, Solanum tuberosum cv. Kardal. How it is done: Stem segments of in vitro potato plants harbouring an auxiliary meristem were transferred to micro-tuber inducing medium. Micro-tuber inducing medium contains 1×MS-salts supplemented with R3 vitamins, 0.5 g/l MES (final pH=5.8, adjusted with KOH) and solidified with 8 g/l Daichin agar, 60 g/l sucrose and 2.5 mg/l kinetin. After 3 to 5 weeks of growth in the dark at 24° C., micro-tubers were formed.
Validamycin A was isolated from Solacol, a commercial agricultural formulation (Takeda Chem. Indust., Tokyo) as described by Kendall et al. (1990) Phytochemistry 29, 2525. The procedure involves ion-exchange chromatography (QAE-Sephadex A-25 (Pharmacia), bed vol. 10 ml, equilibration buffer 0.2 mM Na-Pi pH 7) from a 3% agricultural formulation of Solacol. Loading 1 ml of Solacol on the column and eluting with water in 7 fractions, practically all Validamycin was recovered in fraction 4. Based on a 100% recovery, using this procedure, the concentration of Validamycin A was adjusted to 1.10^−3M in MS-medium, for use in trehalose accumulation tests. Alternatively, Validamycin A and B may be purified directly from Streptomyces hygroscopicus var. limoneus, as described by Iwasa et al. (1971) J. Antibiot. 24, 119, the content of which is incorporated herein by reference.
Carbohydrates were determined quantitatively by anion exchange chromatography with pulsed electrochemical detection. Extracts were prepared by extracting homogenized frozen material with 80% EtOH. After extraction for 15 minutes at room temperature, the soluble fraction is evaporated and dissolved in distilled water. Samples (25 μl) were analyzed on a Dionex DX-300 liquid chromatograph equipped with a 4×250 mm Dionex 35391 carbopac PA-1 column and a 4×50 mm Dionex 43096 carbopac PA-1 precolumn. Elution was with 100 mM NaOH at 1 ml/min followed by a NaAc gradient. Sugars were detected with a pulsed electrochemical detector (Dionex, PED). Commercially available carbohydrates (Sigma) were used as a standard.
Transgenic potato plants were generated harbouring the otsA gene driven by the potato tuber-specific patatin promoter (pMOG845). Potato Solanum tuberosum cv. Kardal tuber discs were transformed with Agrobacterium tumefaciens EHA105 harbouring the binary vector pMOG845. […] All plants obtained were phenotypically indistinguishable from wild type plants. […] The presence of small amounts of trehalose in wild-type plants indicates the presence of a functional trehalose biosynthetic pathway.

The test system of assay [1] is α- or β-glycohydrolase activity. To be noted: except for trehalase; cited from earlier work.

On to `OCC1=C[C@H](N[C@H]2C[C@H](CO)[C@@H](O[C@@H]3O[C@H](CO)[C@@H](O)[C@H](O)[C@H]3O)[C@H](O)[C@H]2O)[C@H](O)[C@@H](O)[C@@H]1O` [Validamycin A, 1,5,6-trideoxy-3-o-β-D-glucopyranosyl-5-(hydroxymethyl)-1-[[4,5,6-trihydroxy-3-(hydroxymenthyl)-2-cyclohexen-1-yl]amino]-D-chiro-inositol], for which the “Trehalose level in microtubers versus medium without Validamycin A” value with trehalase activity (microtuber-inducing medium with 10^−3M Validamycin A, transgenic pMOG845 and wild-type plants) was “elevated levels of trehalose”. Moreover, the “Trehalose (% fresh weight), +Validamycin A” value in the assay on trehalase activity (microtubers of transgenic line 845-2 (pat-TPS)) turned out to be 0.016 % fresh weight; with trehalase activity (microtubers of transgenic line 845-8 (pat-TPS)), 0.051 % fresh weight; with trehalase activity (microtubers of transgenic line 845-11 (pat-TPS)) it was 0.015 % fresh weight; in the assay on trehalase activity (microtubers of transgenic line 845-13 (pat-TPS)) it was 0.011 % fresh weight; in the assay on trehalase activity (microtubers of transgenic line 845-22 (pat-TPS)), 0.112 % fresh weight; with trehalase activity (microtubers of transgenic line 845-25 (pat-TPS)), 0.002 % fresh weight. Moreover, the “Trehalose (% fresh weight), +Validamycin A” value was found to be 0.109 % fresh weight in the assay on trehalase activity (microtubers of transgenic line 845-28 (pat-TPS)) and 0.001 % fresh weight in the assay with trehalase activity (microtubers of wild-type Kardal). Besides, in assay [1], the “Inhibition of α- or β-glycohydrolase activity other than trehalase” value is listed as “does not significantly inhibit”.
